# Laboratory results from PubChem BioAssay (NCI).
#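 Following 48 hours of exposure in 96-well plates, responses at five concentrations were used to interpolate endpoints linearly. TGI is the concentration that stops growth completely.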
# Experiments:
# Assay in all cases: growth of human tumour cells (NCI), 48 h
# 786-0 renal = tested on: 786-0 renal
# A498 renal = tested on: A498 renal
# ACHN renal = tested on: ACHN renal
# CAKI-1 renal = tested on: CAKI-1 renal
# CCRF-CEM leukemia = tested on: CCRF-CEM leukemia
# COLO 205 colon = tested on: COLO 205 colon
# DU-145 prostate = tested on: DU-145 prostate
# EKVX NSCLC = tested on: EKVX NSCLC
# HCC-2998 colon = tested on: HCC-2998 colon
# HCT-116 colon = tested on: HCT-116 colon
# HCT-15 colon = tested on: HCT-15 colon
# HL-60(TB) leukemia = tested on: HL-60(TB) leukemia
# HOP-62 NSCLC = tested on: HOP-62 NSCLC
# HOP-92 NSCLC = tested on: HOP-92 NSCLC
# HS 578T breast = tested on: HS 578T breast
# HT29 colon = tested on: HT29 colon
# IGROV1 ovarian = tested on: IGROV1 ovarian
# K-562 leukemia = tested on: K-562 leukemia
# KM12 colon = tested on: KM12 colon
# LOX IMVI melanoma = tested on: LOX IMVI melanoma
# MALME-3M melanoma = tested on: MALME-3M melanoma
# MDA-MB-231 breast = tested on: MDA-MB-231 breast
# MDA-MB-435 = tested on: MDA-MB-435
# MDA-N = tested on: MDA-N
# MOLT-4 leukemia = tested on: MOLT-4 leukemia
# NCI-H226 lung = tested on: NCI-H226 lung
# NCI-H23 lung = tested on: NCI-H23 lung
# NCI-H460 lung = tested on: NCI-H460 lung
# NCI-H522 lung = tested on: NCI-H522 lung
# NCI/ADR-RES ovarian = tested on: NCI/ADR-RES ovarian
# OVCAR-3 ovarian = tested on: OVCAR-3 ovarian
# OVCAR-4 ovarian = tested on: OVCAR-4 ovarian
# OVCAR-8 ovarian = tested on: OVCAR-8 ovarian
# PC-3 prostate = tested on: PC-3 prostate
# RPMI-8226 leukemia = tested on: RPMI-8226 leukemia
# SF-268 CNS = tested on: SF-268 CNS
# SK-MEL-2 melanoma = tested on: SK-MEL-2 melanoma
# SK-MEL-28 melanoma = tested on: SK-MEL-28 melanoma
# SK-MEL-5 melanoma = tested on: SK-MEL-5 melanoma
# SN12C renal = tested on: SN12C renal
# SNB-19 CNS = tested on: SNB-19 CNS
# SNB-75 CNS = tested on: SNB-75 CNS
# SW-620 colon = tested on: SW-620 colon
# T-47D breast = tested on: T-47D breast
# TK-10 renal = tested on: TK-10 renal
# U251 CNS = tested on: U251 CNS
# UACC-257 melanoma = tested on: UACC-257 melanoma
# UACC-62 melanoma = tested on: UACC-62 melanoma
# UO-31 renal = tested on: UO-31 renal
# A549 NSCLC = tested on: A549 NSCLC
# M14 melanoma = tested on: M14 melanoma
# MCF7 breast = tested on: MCF7 breast
# OVCAR-5 ovarian = tested on: OVCAR-5 ovarian
# RXF 393 renal = tested on: RXF 393 renal
# SF-295 CNS = tested on: SF-295 CNS
# SF-539 CNS = tested on: SF-539 CNS
# SK-OV-3 ovarian = tested on: SK-OV-3 ovarian
# SR leukemia = tested on: SR leukemia
# BT-549 breast = tested on: BT-549 breast
smiles,measurement,setting,value
O=c1oc2ccccc2c(O)c1C(c1ccco1)c1c(O)c2ccccc2oc1=O,TGI,786-0 renal,55.5 µM
same,TGI,A498 renal,> 100 µM
same,TGI,ACHN renal,55.8 µM
same,TGI,CAKI-1 renal,42.4 µM
same,TGI,CCRF-CEM leukemia,73.8 µM
same,TGI,COLO 205 colon,48.9 µM
same,TGI,DU-145 prostate,> 100 µM
same,TGI,EKVX NSCLC,> 100 µM
same,TGI,HCC-2998 colon,55.1 µM
same,TGI,HCT-116 colon,> 100 µM
same,TGI,HCT-15 colon,41.4 µM
same,TGI,HL-60(TB) leukemia,> 100 µM
same,TGI,HOP-62 NSCLC,> 100 µM
same,TGI,HOP-92 NSCLC,> 100 µM
same,TGI,HS 578T breast,> 100 µM
same,TGI,HT29 colon,> 100 µM
same,TGI,IGROV1 ovarian,45.8 µM
same,TGI,K-562 leukemia,> 100 µM
same,TGI,KM12 colon,> 100 µM
same,TGI,LOX IMVI melanoma,61.1 µM
same,TGI,MALME-3M melanoma,41.7 µM
same,TGI,MDA-MB-231 breast,36 µM
same,TGI,MDA-MB-435,85.4 µM
same,TGI,MDA-N,44.9 µM
same,TGI,MOLT-4 leukemia,62.1 µM
same,TGI,NCI-H226 lung,> 100 µM
same,TGI,NCI-H23 lung,> 100 µM
same,TGI,NCI-H460 lung,> 100 µM
same,TGI,NCI-H522 lung,41.8 µM
same,TGI,NCI/ADR-RES ovarian,> 100 µM
same,TGI,OVCAR-3 ovarian,> 100 µM
same,TGI,OVCAR-4 ovarian,> 100 µM
same,TGI,OVCAR-8 ovarian,82 µM
same,TGI,PC-3 prostate,> 100 µM
same,TGI,RPMI-8226 leukemia,66.1 µM
same,TGI,SF-268 CNS,79.8 µM
same,TGI,SK-MEL-2 melanoma,> 100 µM
same,TGI,SK-MEL-28 melanoma,52.1 µM
same,TGI,SK-MEL-5 melanoma,> 100 µM
same,TGI,SN12C renal,63.1 µM
same,TGI,SNB-19 CNS,> 100 µM
same,TGI,SNB-75 CNS,95.9 µM
same,TGI,SW-620 colon,49.8 µM
same,TGI,T-47D breast,> 100 µM
same,TGI,TK-10 renal,80.2 µM
same,TGI,U251 CNS,61.8 µM
same,TGI,UACC-257 melanoma,63.4 µM
same,TGI,UACC-62 melanoma,70 µM
same,TGI,UO-31 renal,43.9 µM
CC1(C)N=C(C(N)=O)c2ncn(-c3ccccc3)c2N1,TGI,786-0 renal,> 100 µM
same,TGI,A498 renal,> 100 µM
same,TGI,A549 NSCLC,> 100 µM
same,TGI,ACHN renal,> 100 µM
same,TGI,CAKI-1 renal,> 100 µM
same,TGI,CCRF-CEM leukemia,> 100 µM
same,TGI,COLO 205 colon,> 100 µM
same,TGI,DU-145 prostate,> 100 µM
same,TGI,EKVX NSCLC,> 100 µM
same,TGI,HCC-2998 colon,> 100 µM
same,TGI,HCT-116 colon,> 100 µM
same,TGI,HCT-15 colon,> 100 µM
same,TGI,HL-60(TB) leukemia,> 100 µM
same,TGI,HOP-62 NSCLC,> 100 µM
same,TGI,HS 578T breast,> 100 µM
same,TGI,HT29 colon,> 100 µM
same,TGI,IGROV1 ovarian,> 100 µM
same,TGI,K-562 leukemia,> 100 µM
same,TGI,KM12 colon,> 100 µM
same,TGI,LOX IMVI melanoma,> 100 µM
same,TGI,M14 melanoma,> 100 µM
same,TGI,MALME-3M melanoma,> 100 µM
same,TGI,MCF7 breast,> 100 µM
same,TGI,MDA-MB-231 breast,> 100 µM
same,TGI,MDA-MB-435,> 100 µM
same,TGI,MDA-N,> 100 µM
same,TGI,NCI-H226 lung,> 100 µM
same,TGI,NCI-H23 lung,> 100 µM
same,TGI,NCI-H460 lung,> 100 µM
same,TGI,NCI-H522 lung,> 100 µM
same,TGI,NCI/ADR-RES ovarian,> 100 µM
same,TGI,OVCAR-3 ovarian,> 100 µM
same,TGI,OVCAR-4 ovarian,> 100 µM
same,TGI,OVCAR-5 ovarian,> 100 µM
same,TGI,OVCAR-8 ovarian,> 100 µM
same,TGI,PC-3 prostate,> 100 µM
same,TGI,RPMI-8226 leukemia,> 100 µM
same,TGI,RXF 393 renal,> 100 µM
same,TGI,SF-268 CNS,> 100 µM
same,TGI,SF-295 CNS,> 100 µM
same,TGI,SF-539 CNS,> 100 µM
same,TGI,SK-MEL-2 melanoma,> 100 µM
same,TGI,SK-MEL-28 melanoma,> 100 µM
same,TGI,SK-MEL-5 melanoma,> 100 µM
same,TGI,SK-OV-3 ovarian,> 100 µM
same,TGI,SN12C renal,> 100 µM
same,TGI,SNB-19 CNS,> 100 µM
same,TGI,SNB-75 CNS,> 100 µM
same,TGI,SR leukemia,> 100 µM
same,TGI,SW-620 colon,> 100 µM
same,TGI,T-47D breast,> 100 µM
same,TGI,TK-10 renal,> 100 µM
same,TGI,U251 CNS,> 100 µM
same,TGI,UACC-257 melanoma,> 100 µM
same,TGI,UACC-62 melanoma,> 100 µM
OC12COc3ccccc3C1Oc1ccccc1C2 (stereo not given),TGI,786-0 renal,> 100 µM
same,TGI,A498 renal,> 100 µM
same,TGI,A549 NSCLC,> 100 µM
same,TGI,ACHN renal,> 100 µM
same,TGI,BT-549 breast,> 100 µM
same,TGI,CAKI-1 renal,> 100 µM
same,TGI,CCRF-CEM leukemia,> 100 µM
same,TGI,COLO 205 colon,> 100 µM
same,TGI,DU-145 prostate,> 100 µM
same,TGI,EKVX NSCLC,> 100 µM
same,TGI,HCC-2998 colon,> 100 µM
same,TGI,HCT-116 colon,> 100 µM
same,TGI,HCT-15 colon,> 100 µM
same,TGI,HOP-62 NSCLC,> 100 µM
same,TGI,HOP-92 NSCLC,> 100 µM
same,TGI,HT29 colon,> 100 µM
same,TGI,IGROV1 ovarian,> 100 µM
same,TGI,K-562 leukemia,> 100 µM
same,TGI,KM12 colon,> 100 µM
same,TGI,LOX IMVI melanoma,> 100 µM
same,TGI,M14 melanoma,> 100 µM
same,TGI,MALME-3M melanoma,> 100 µM
same,TGI,MCF7 breast,> 100 µM
same,TGI,MDA-MB-231 breast,> 100 µM
same,TGI,MDA-MB-435,> 100 µM
same,TGI,MDA-N,> 100 µM
same,TGI,MOLT-4 leukemia,> 100 µM
same,TGI,NCI-H226 lung,> 100 µM
same,TGI,NCI-H23 lung,> 100 µM
same,TGI,NCI-H522 lung,> 100 µM
same,TGI,NCI/ADR-RES ovarian,> 100 µM
same,TGI,OVCAR-3 ovarian,> 100 µM
same,TGI,OVCAR-4 ovarian,> 100 µM
same,TGI,OVCAR-5 ovarian,> 100 µM
same,TGI,OVCAR-8 ovarian,> 100 µM
same,TGI,PC-3 prostate,> 100 µM
same,TGI,RPMI-8226 leukemia,> 100 µM
same,TGI,SF-268 CNS,> 100 µM
same,TGI,SF-295 CNS,> 100 µM
same,TGI,SF-539 CNS,> 100 µM
same,TGI,SK-MEL-2 melanoma,> 100 µM
same,TGI,SK-MEL-5 melanoma,> 100 µM
same,TGI,SK-OV-3 ovarian,> 100 µM
same,TGI,SN12C renal,> 100 µM
same,TGI,SNB-75 CNS,> 100 µM
same,TGI,SW-620 colon,> 100 µM
same,TGI,T-47D breast,> 100 µM
same,TGI,TK-10 renal,> 100 µM
same,TGI,U251 CNS,> 100 µM
same,TGI,UACC-257 melanoma,> 100 µM
same,TGI,UACC-62 melanoma,> 100 µM
same,TGI,UO-31 renal,> 100 µM
Cc1cccc2c1Oc1cc(Cl)ccc1C2NC(=O)CCN1CCN(CCO)CC1 (stereo not given),TGI,786-0 renal,26.5 µM
same,TGI,A549 NSCLC,23.7 µM
same,TGI,BT-549 breast,37.5 µM
same,TGI,CCRF-CEM leukemia,37.9 µM
same,TGI,COLO 205 colon,36.6 µM
same,TGI,DU-145 prostate,61.2 µM
same,TGI,EKVX NSCLC,70.5 µM
same,TGI,HCC-2998 colon,43.7 µM
same,TGI,HCT-116 colon,34.6 µM
same,TGI,HCT-15 colon,34.1 µM
same,TGI,HL-60(TB) leukemia,39 µM
same,TGI,HOP-62 NSCLC,32.9 µM
same,TGI,HOP-92 NSCLC,22.8 µM
same,TGI,HT29 colon,29.8 µM
same,TGI,IGROV1 ovarian,> 100 µM
same,TGI,K-562 leukemia,40.6 µM
same,TGI,KM12 colon,11.5 µM
same,TGI,LOX IMVI melanoma,9.7 µM
same,TGI,M14 melanoma,30.3 µM
same,TGI,MCF7 breast,30.3 µM
same,TGI,MDA-MB-231 breast,14.6 µM
same,TGI,MDA-MB-435,27.5 µM
same,TGI,MDA-N,14.6 µM
same,TGI,MOLT-4 leukemia,38.9 µM
same,TGI,NCI-H23 lung,51.5 µM
same,TGI,NCI-H460 lung,34.2 µM
same,TGI,NCI-H522 lung,23.2 µM
same,TGI,NCI/ADR-RES ovarian,30.9 µM
same,TGI,OVCAR-3 ovarian,34 µM
same,TGI,OVCAR-4 ovarian,31 µM
same,TGI,OVCAR-5 ovarian,40.9 µM
same,TGI,OVCAR-8 ovarian,26.3 µM
same,TGI,PC-3 prostate,28.1 µM
same,TGI,SF-268 CNS,> 100 µM
same,TGI,SF-295 CNS,33 µM
same,TGI,SF-539 CNS,26 µM
same,TGI,SK-MEL-28 melanoma,9.93 µM
same,TGI,SK-MEL-5 melanoma,27 µM
same,TGI,SK-OV-3 ovarian,> 100 µM
same,TGI,SN12C renal,28.7 µM
same,TGI,SNB-19 CNS,72 µM
same,TGI,SNB-75 CNS,25.1 µM
same,TGI,SR leukemia,45.1 µM
same,TGI,SW-620 colon,32.2 µM
same,TGI,T-47D breast,34.2 µM
same,TGI,U251 CNS,29.3 µM
same,TGI,UACC-257 melanoma,33.7 µM
same,TGI,UACC-62 melanoma,28.7 µM
same,TGI,UO-31 renal,26.8 µM
